# Laboratory results as given in US20020103172A1, “VITAMIN D3 DERIVATIVES” (priority 1996, published 2002).
# Where two headings read alike, the source gives them in different places.
# Assays:
# [1] = tested on: HaCaT, a spontaneously immortalized, non-tumorigenic human skin keratinocyte cell line; assay: HaCaT antiproliferative assay measuring 3H-thymidine uptake; assay type: cell-based; details: for HaCaT rel.: ratio between IC50 of 1,25(OH)2D3 and IC50 of the compound, 50% inhibition of 3H-thymidine incorporation, value >1 = more active than 1,25(OH)2D3; for potency in the HaCaT-assay (psoriasis model), in words: compared with 1,25(OH)2D3
# Source text: A useful assay for the rating of test compounds for antiproliferative activity in skin cells, e.g. antipsoriatic effect, is the in vitro assay using HaCaT, a spontaneously immortalized, non-tumorigenic human skin keratinocyte cell line (Mørk Hansen, C. et al., J. Invest. Dermatol. 1, 44-48 (1996)), measuring ^3H -thymidine uptake.
# mouse spleen lymphocytes = assay: Mixed lymphocyte reaction assay (MLR), allogeneic stimulation, 3H-thymidine incorporation; assay type: cell-based; details: for MLR rel.: ratio between IC50 of 1,25(OH)2D3 and IC50 of the compound, 72 hours incubation, 3H-thymidine incorporation, value >1 = more active than 1,25(OH)2D3
# Procedure: An in vitro assay for the rating of test compounds for immunosuppressive potency is the mixed lymphocyte reaction assay, “MLR”, measuring the allogeneic stimulation of mouse spleen lymphocytes: lymphocytes, obtained from the spleens of BALB/c and CB6F1 mice, are stimulated by co-cultivating 5×10^6/ml cells from BALB/c mice (responders) with 7.5×10^6/ml cells from CB6F1 mice (inducers). The mixed cultures of lymphocytes are incubated with the test compounds for 72 hours. Cellular DNA-synthesis is assessed by the incorporation of ^3H-thymidine in the DNA.
# calcium metabolism [2] = details: rat, in vivo
# Procedure: (§1) The calcemic activity of the compounds was determined in rats in vivo, as previously described (Binderup, L., Bramm, E., Biochem. Pharmacol. 37, 889-895 (1988)).
# calcium metabolism [3] = assay: Calcemic activity in rats in vivo; details: calcemic activity relative to 1,25(OH)2D3, low values preferred
# Procedure: as §1
compound,measurement,setting,value
"C=C1/C(=C\C=C2/CCC[C@]3(C)[C@@H]([C@H](C)CCCC(C)(C)O)CC[C@@H]23)C[C@@H](O)C[C@@H]1O [1,25, 1α,25-dihydroxy-vitamin D3, reference compound]",HaCaT rel.,[1],1
same,MLR rel.,mouse spleen lymphocytes,1
same,Calc. rel.,calcium metabolism [2],1
"C=C1C(=CC=C2CCCC3(C)C(C(C)CCCCC(O)(CC)CC)=CCC23)CC(O)CC1O [Compound 107, 1(S),3(R)-Dihydroxy-20(R)-(5-ethyl-5-hydroxyhept-1-yl)-9,10-seco-oregna-5(Z),7(E),10(19),16-tetraene]","potency in the HaCaT-assay (psoriasis model), in words",[1],"considerably more potent than 1,25(OH)2D3"
same,HaCaT rel.,[1],43
same,"immunosuppressive activity (MLR), in words",mouse spleen lymphocytes,potent effects
same,MLR rel.,mouse spleen lymphocytes,5
same,Calc. rel.,calcium metabolism [3],0.54
"C=C1C(=CC=C2CCCC3(C)C(C(C)C=CC=CC(O)(CC)CC)=CCC23)CC(O)CC1O [Compound 111, 1(S),3(R)-Dihydroxy-20(R)-(5-ethyl-5-hydroxyhepta-1(E),3(E)-dien-1-yl)-9,10-seco-pregna-5(Z),7(E),10(19)16-tetraene]","potency in the HaCaT-assay (psoriasis model), in words",[1],"considerably more potent than 1,25(OH)2D3"
same,HaCaT rel.,[1],51
same,"immunosuppressive activity (MLR), in words",mouse spleen lymphocytes,potent effects
same,MLR rel.,mouse spleen lymphocytes,6.5
same,Calc. rel.,calcium metabolism [3],1.47
